According to ChEMBL document CHEMBL1201862, “PubChem BioAssay data set” (2004):
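Method: 48-hour compound exposure of cells in 96-well plates, five concentrations, linear interpolation of endpoints. GI50 marks 50% less growth.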 Calls of active or inactive are those of the source. Cut-off read from the data, not from the text of the source: active = GI50 up to about 1.1 µM and inactive = higher.

Key:
Assay in all cases: NCI anticancer screen, dose series, 48 h
[1] = system: HCT-15
[2] = system: DU-145
[3] = system: MDA-MB-435
[4] = system: HCT-116
[5] = system: OVCAR-3
[6] = system: LOX IMVI
[7] = system: RXF 393
[8] = system: SNB-19
[9] = system: SF-295
[10] = system: NCI/ADR-RES
[11] = system: CAKI-1
[12] = system: 786-0
[13] = system: OVCAR-8
[14] = system: OVCAR-4
[15] = system: MCF7
[16] = system: MDA-MB-231
[17] = system: K562
[18] = system: HT-29
[19] = system: SF-539
[20] = system: MOLT-4

| Structure (SMILES) | GI50 [1] | GI50 [2] | GI50 [3] | GI50 [4] | GI50 [5] | GI50 [6] | GI50 [7] | GI50 [8] | GI50 [9] | GI50 [10] | GI50 [11] | GI50 [12] | GI50 [13] | GI50 [14] | GI50 [15] | GI50 [16] | GI50 [17] | GI50 [18] | GI50 [19] | GI50 [20] |
| --- | --- | --- | --- | --- | --- | --- | --- | --- | --- | --- | --- | --- | --- | --- | --- | --- | --- | --- | --- | --- |
| Cc1cc2c(O)nc(N)nc2nc1C | > 100 µM | > 100 µM (inactive) | > 100 µM (inactive) | > 100 µM (inactive) | > 100 µM (inactive) | > 100 µM (inactive) | > 100 µM (inactive) | > 100 µM (inactive) | > 100 µM (inactive) | > 100 µM (inactive) | > 100 µM (inactive) | > 100 µM (inactive) | > 100 µM (inactive) | > 100 µM (inactive) | > 100 µM (inactive) | > 100 µM (inactive) | > 100 µM (inactive) | > 100 µM (inactive) | – | – |
| O=C1c2ccccc2C(=O)c2c(NC(=O)c3ccc4c5c(ncnc35)-c3ccccc3C4=O)cccc21 | > 100 µM | > 100 µM (inactive) | > 100 µM (inactive) | > 100 µM (inactive) | 37.1 µM (inactive) | – | 22.6 µM (inactive) | 33.9 µM (inactive) | 23.4 µM (inactive) | > 100 µM (inactive) | > 100 µM (inactive) | 25.1 µM (inactive) | > 100 µM (inactive) | > 100 µM (inactive) | > 100 µM (inactive) | 32.4 µM (inactive) | > 100 µM (inactive) | > 100 µM (inactive) | 52.4 µM (inactive) | > 100 µM (inactive) |
| CNC(=O)OCc1c(COC(=O)NC)c(C)n(-c2ccc(Br)cc2)c1C | 14 µM | 14.3 µM (inactive) | 16.8 µM (inactive) | 10.8 µM (inactive) | 14.6 µM (inactive) | 6.24 µM (inactive) | 5.37 µM (inactive) | 18.7 µM (inactive) | 13.1 µM (inactive) | 16.3 µM (inactive) | 4.02 µM (inactive) | 9.82 µM (inactive) | 12.1 µM (inactive) | – | 11.3 µM (inactive) | 13.9 µM (inactive) | 15.8 µM (inactive) | 5.57 µM (inactive) | 15.4 µM (inactive) | 6.79 µM (inactive) |
| CCCCN1C(=O)c2c(Br)sc(Br)c2C1=O | 25.7 µM | 36.4 µM (inactive) | 37.4 µM (inactive) | 24.9 µM (inactive) | – | 32.6 µM (inactive) | 52 µM (inactive) | 51.5 µM (inactive) | 43.1 µM (inactive) | 30.9 µM (inactive) | 67.8 µM (inactive) | 37 µM (inactive) | 38.9 µM (inactive) | 25.7 µM (inactive) | 20.2 µM (inactive) | 26.9 µM (inactive) | 30.5 µM (inactive) | 23.3 µM (inactive) | 24.2 µM (inactive) | 24.2 µM (inactive) |
| Cc1ccc(N2C(=O)C3c4[nH]c5ccccc5c4C4CCC(C(C)(C)C)CC4C3C2=O)cc1 (configuration not stated) | 34.6 µM | 2.48 µM (inactive) | 16.8 µM (inactive) | 11.1 µM (inactive) | 3.03 µM (inactive) | 11.6 µM (inactive) | 10.4 µM (inactive) | 8.75 µM (inactive) | 8.15 µM (inactive) | 12.8 µM (inactive) | 10.2 µM (inactive) | 5.06 µM (inactive) | 7.71 µM (inactive) | 7.21 µM (inactive) | 12.6 µM (inactive) | 3.78 µM (inactive) | 5.51 µM (inactive) | 13 µM (inactive) | – | 3.17 µM (inactive) |
| CCn1c(=O)c2c3cc(O)ccc3oc2c2ccc(O)cc21 | 31 µM | 29.4 µM (inactive) | 27 µM (inactive) | – | 29.9 µM (inactive) | – | 30.1 µM (inactive) | 21.9 µM (inactive) | 25 µM (inactive) | 37.8 µM (inactive) | 34.3 µM (inactive) | 57.7 µM (inactive) | 36.7 µM (inactive) | 34.8 µM (inactive) | 28.6 µM (inactive) | 25.2 µM (inactive) | 25.9 µM (inactive) | 25.2 µM (inactive) | 16.7 µM (inactive) | 16.1 µM (inactive) |
| O=C(CP(=O)(c1ccccc1)c1ccccc1)c1cccc(C(=O)CP(=O)(c2ccccc2)c2ccccc2)c1 | > 100 µM | > 100 µM (inactive) | > 100 µM (inactive) | 48.9 µM (inactive) | – | – | 24.7 µM (inactive) | 29.2 µM (inactive) | 14.6 µM (inactive) | > 100 µM (inactive) | > 100 µM (inactive) | 37.8 µM (inactive) | 43.1 µM (inactive) | > 100 µM (inactive) | 98.6 µM (inactive) | > 100 µM (inactive) | > 100 µM (inactive) | > 100 µM (inactive) | 29.7 µM (inactive) | > 100 µM (inactive) |
| CCSC1=N/C(=C\c2ccc(N(C)C)cc2)C(Cl)=N1 | > 100 µM | > 100 µM (inactive) | > 100 µM (inactive) | > 100 µM (inactive) | > 100 µM (inactive) | – | 25.2 µM (inactive) | > 100 µM (inactive) | > 100 µM (inactive) | > 100 µM (inactive) | > 100 µM (inactive) | > 100 µM (inactive) | > 100 µM (inactive) | > 100 µM (inactive) | > 100 µM (inactive) | > 100 µM (inactive) | – | > 100 µM (inactive) | – | > 100 µM (inactive) |
| O=C1NC(N2CCOCC2)=N/C1=C\c1cccs1 | > 100 µM | > 100 µM (inactive) | > 100 µM (inactive) | > 100 µM (inactive) | > 100 µM (inactive) | > 100 µM (inactive) | > 100 µM (inactive) | > 100 µM (inactive) | > 100 µM (inactive) | > 100 µM (inactive) | > 100 µM (inactive) | > 100 µM (inactive) | > 100 µM (inactive) | > 100 µM (inactive) | > 100 µM (inactive) | > 100 µM (inactive) | – | > 100 µM (inactive) | > 100 µM (inactive) | > 100 µM (inactive) |
| Nc1nc(=S)n(-c2ccc(Cl)cc2)c2nc3ccccc3cc12 | 39.9 µM | 43.6 µM (inactive) | 80.4 µM (inactive) | 40.7 µM (inactive) | 45 µM (inactive) | 44.1 µM (inactive) | 57.9 µM (inactive) | > 100 µM (inactive) | 64.6 µM (inactive) | > 100 µM (inactive) | 30.1 µM (inactive) | 53.3 µM (inactive) | 50.1 µM (inactive) | 46.7 µM (inactive) | 15.4 µM (inactive) | 60.5 µM (inactive) | 66.7 µM (inactive) | 79.6 µM (inactive) | – | – |
| CC(NC(=O)/C(=C/c1ccccc1)NC(=O)c1ccccc1)C(=O)O (configuration not stated) | 87.9 µM | > 100 µM (inactive) | 38.8 µM (inactive) | 91.2 µM (inactive) | > 100 µM (inactive) | 25.2 µM (inactive) | > 100 µM (inactive) | 77.1 µM (inactive) | 96.4 µM (inactive) | 40.5 µM (inactive) | 29.7 µM (inactive) | 39.5 µM (inactive) | 50 µM (inactive) | – | 54.2 µM (inactive) | 36.5 µM (inactive) | > 100 µM (inactive) | > 100 µM (inactive) | 20.6 µM (inactive) | > 100 µM (inactive) |
| O=C1CC2CC(CC3(CO3)C2)C1F (configuration not stated) | > 100 µM | > 100 µM (inactive) | > 100 µM (inactive) | > 100 µM (inactive) | – | > 100 µM (inactive) | > 100 µM (inactive) | > 100 µM (inactive) | > 100 µM (inactive) | > 100 µM (inactive) | > 100 µM (inactive) | > 100 µM (inactive) | > 100 µM (inactive) | > 100 µM (inactive) | > 100 µM (inactive) | > 100 µM (inactive) | > 100 µM (inactive) | > 100 µM (inactive) | – | > 100 µM (inactive) |
| CC1=C(C(=O)NNC(=O)Cc2ccccc2)CC(C(=O)NNC(=O)Cc2ccccc2)=C(C)N1 | > 100 µM | > 100 µM (inactive) | 89.1 µM (inactive) | > 100 µM (inactive) | > 100 µM (inactive) | 80 µM (inactive) | 47.8 µM (inactive) | > 100 µM (inactive) | > 100 µM (inactive) | > 100 µM (inactive) | > 100 µM (inactive) | > 100 µM (inactive) | > 100 µM (inactive) | > 100 µM (inactive) | > 100 µM (inactive) | > 100 µM (inactive) | – | > 100 µM (inactive) | > 100 µM (inactive) | – |
| O=C(O)c1cc2c(cc1S(=O)(=O)O)C1C(C3C2C2(Cl)C(Cl)=C(Cl)C3(Cl)C2(Cl)Cl)C2(Cl)C(Cl)=C(Cl)C1(Cl)C2(Cl)Cl (configuration not stated) | 45 µM | 48.1 µM (inactive) | 41.9 µM (inactive) | 17.4 µM (inactive) | 22.9 µM (inactive) | – | 29.2 µM (inactive) | 47.4 µM (inactive) | 23.2 µM (inactive) | > 100 µM (inactive) | > 100 µM (inactive) | 39.8 µM (inactive) | 54.7 µM (inactive) | 38.7 µM (inactive) | 34.8 µM (inactive) | 24.4 µM (inactive) | 34.3 µM (inactive) | 21.8 µM (inactive) | 25.4 µM (inactive) | 27.6 µM (inactive) |
| O=C(O)/C=C/c1c2ccc(=O)c(O)c-2oc2c(O)c(O)ccc12 | 61.9 µM | > 100 µM (inactive) | 17.4 µM (inactive) | 17 µM (inactive) | 45 µM (inactive) | 23 µM (inactive) | > 100 µM (inactive) | > 100 µM (inactive) | 24.4 µM (inactive) | 65.3 µM (inactive) | > 100 µM (inactive) | 18.9 µM (inactive) | 40.1 µM (inactive) | 30.3 µM (inactive) | 17.2 µM (inactive) | 20.8 µM (inactive) | 21.7 µM (inactive) | 63.7 µM (inactive) | – | 18.9 µM (inactive) |
